Literature values, collected in PMC11211886 (Frontiers in Pharmacology, 2024).
Read-outs that look alike come from different tables or passages of the source.

Columns and labels:
[1] = cited from earlier work; for incidence of ≥Grade 3 GI toxicity, including diarrhea and colitis: clinical trials, ref FDA, 2014, FDA, 2017, 2018, 2021
[2] = ref FDA, cited from earlier work
P-gp = system: P-gp; set-up: method as in FDA, 2014; FDA, 2017; FDA, 2018; FDA, 2021; settings: ref FDA, 2014, 2017, 2018, 2021; cited from earlier work
[3] = among marketed PI3Kδ inhibitors; ref FDA, 2014; FDA, 2017, 2018, 2021; cited from earlier work

| Structure (SMILES) | incidence of ≥Grade 3 GI toxicity, including diarrhea and colitis [1] | diarrhea (TEAE) incidence ([1]; patients with indolent and aggressive lymphoma, phase II, ref Dreyling et al., 2017) [%] | exposure in the intestines versus plasma [2]; 2018 [fold] | P-gp substrate status (P-gp) | Vz/F in human [3] | exposure in the intestines versus plasma [2]; 2021 [fold] | diarrhea, any-grade adverse event ([1]; ref Wang et al., 2023) [%] | diarrhea, grade ≥3 AE ([1]; ref Wang et al., 2023) [%] | exposure in the intestines versus plasma [2]; 2017 [fold] | exposure in the intestines versus plasma [2]; 2014 [fold] |
| --- | --- | --- | --- | --- | --- | --- | --- | --- | --- | --- |
| COc1c(OCCCN2CCOCC2)ccc2c1N=C(NC(=O)c1cnc(N)nc1)N1CCN=C21 [copanlisib, Copanlisib] | higher than 10% | 40.5 | 190 | P-gp substrates |  |  |  |  |  |  |
| CC(C)Oc1ccc(-c2nn([C@@H](C)c3oc4ccc(F)cc4c(=O)c3-c3cccc(F)c3)c3ncnc(N)c23)cc1F [umbralisib, Umbralisib] | higher than 10% |  |  |  | highest Vz/F among these drugs | 100 |  |  |  |  |
| C[C@H](Nc1ncnc2[nH]cnc12)c1cc2cccc(Cl)c2c(=O)n1-c1ccccc1 [duvelisib, Duvelisib] | higher than 10% |  |  | P-gp substrates |  |  | 47 | 12 | 100 |  |
| CC[C@H](Nc1ncnc2[nH]cnc12)c1nc2cccc(F)c2c(=O)n1-c1ccccc1 [idelalisib, Idelalisib] | higher than 10% |  |  | P-gp substrates |  |  |  |  |  | 50 |
